# Source: ChEMBL document CHEMBL1137718, “Topological descriptors in modeling the agonistic activity of human A3 adenosine receptor ligands: the derivatives of 2-chloro-N(6)-substituted-4'-thioadenosine-5'-uronamide” (Eur J Med Chem, 2009)
# Biological target: T1, Adenosine receptor A3 (Homo sapiens, UniProt P0DMS8)
# T1 sequence (P0DMS8 whole entry): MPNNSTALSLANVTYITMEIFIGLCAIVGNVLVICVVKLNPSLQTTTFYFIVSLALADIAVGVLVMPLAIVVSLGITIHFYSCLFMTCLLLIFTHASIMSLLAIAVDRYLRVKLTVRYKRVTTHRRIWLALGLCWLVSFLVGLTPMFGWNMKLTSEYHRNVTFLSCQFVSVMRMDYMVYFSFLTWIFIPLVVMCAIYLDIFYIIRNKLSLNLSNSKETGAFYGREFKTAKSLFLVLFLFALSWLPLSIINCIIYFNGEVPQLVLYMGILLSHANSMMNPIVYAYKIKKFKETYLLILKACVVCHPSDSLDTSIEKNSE
# Test: Displacement of [125I][…] from human adenosine A3 receptor expressed in CHO cells
# Assay type: cell-based
row,Ki,Structure (SMILES)
1,7590 nM,Cc1ccccc1CNc1nc(Cl)nc2c1ncn2[C@@H]1O[C@H](C(=O)N2CCOCC2)[C@@H](O)[C@H]1O
2,41.7 nM,CC(C)CCNC(=O)[C@H]1O[C@@H](n2cnc3c(NCc4cccc(I)c4)nc(Cl)nc32)[C@H](O)[C@@H]1O
3,1510 nM,CNc1nc(Cl)nc2c1ncn2[C@@H]1O[C@H](C(=O)N(C)C)[C@@H](O)[C@H]1O
4,0.398 nM,CNC(=O)[C@H]1O[C@@H](n2cnc3c(N)nc(Cl)nc32)[C@H](O)[C@@H]1O
5,3.63 nM,O=C(NCC1CC1)[C@H]1S[C@@H](n2cnc3c(NCc4cccc(I)c4)nc(Cl)nc32)[C@H](O)[C@@H]1O
6,0.676 nM,CCNC(=O)[C@H]1O[C@@H](n2cnc3c(NC4CC4)nc(Cl)nc32)[C@H](O)[C@@H]1O
7,1450 nM,O=C([C@H]1O[C@@H](n2cnc3c(NCc4cccc(I)c4)nc(Cl)nc32)[C@H](O)[C@@H]1O)N1CCN(c2ccc(F)cc2)CC1
8,1.1 nM,CNc1nc(Cl)nc2c1ncn2[C@@H]1O[C@H](C(=O)NCC2CC2)[C@@H](O)[C@H]1O
9,2.95 nM,O=C(NC1CC1)[C@H]1S[C@@H](n2cnc3c(NCc4cccc(I)c4)nc(Cl)nc32)[C@H](O)[C@@H]1O
10,27.5 nM,Cc1ccccc1CNc1nc(Cl)nc2c1ncn2[C@@H]1O[C@H](C(=O)NC2CC2)[C@@H](O)[C@H]1O
11,85.1 nM,CNc1nc(Cl)nc2c1ncn2[C@@H]1O[C@H](C(=O)NCCc2cccc(F)c2)[C@@H](O)[C@H]1O
12,2690 nM,CNc1nc(Cl)nc2c1ncn2[C@@H]1O[C@H](C(=O)N2CCN(c3ccc(F)cc3)CC2)[C@@H](O)[C@H]1O
13,513 nM,O=C([C@H]1S[C@@H](n2cnc3c(NCc4cccc(I)c4)nc(Cl)nc32)[C@H](O)[C@@H]1O)N1CCOCC1
14,417 nM,CNc1nc(Cl)nc2c1ncn2[C@@H]1O[C@H](C(=O)NCCC(c2ccccc2)c2ccccc2)[C@@H](O)[C@H]1O
15,5.62 nM,O=C(NC1CC1)[C@H]1S[C@@H](n2cnc3c(NC4CC4)nc(Cl)nc32)[C@H](O)[C@@H]1O
16,29.5 nM,Cc1ccccc1CNc1nc(Cl)nc2c1ncn2[C@@H]1O[C@H](C(=O)NCC2CC2)[C@@H](O)[C@H]1O
17,2.24 nM,CNC(=O)[C@H]1O[C@@H](n2cnc3c(NC4CC4)nc(Cl)nc32)[C@H](O)[C@@H]1O
18,355 nM,O=C(NCc1cccc(C(F)(F)F)c1)[C@H]1O[C@@H](n2cnc3c(NCc4cccc(I)c4)nc(Cl)nc32)[C@H](O)[C@@H]1O

row,Ki,Structure (SMILES)
1,2.82 nM,CNc1nc(Cl)nc2c1ncn2[C@@H]1O[C@H](C(=O)NC2CC2)[C@@H](O)[C@H]1O
2,347 nM,O=C(NCCC(c1ccccc1)c1ccccc1)[C@H]1O[C@@H](n2cnc3c(NCc4cccc(I)c4)nc(Cl)nc32)[C@H](O)[C@@H]1O
3,0.891 nM,CCNC(=O)[C@H]1S[C@@H](n2cnc3c(NCc4cccc(I)c4)nc(Cl)nc32)[C@H](O)[C@@H]1O
4,2.51 nM,CCNC(=O)[C@H]1O[C@@H](n2cnc3c(NCc4ccccc4C)nc(Cl)nc32)[C@H](O)[C@@H]1O
5,4470 nM,O=C([C@H]1O[C@@H](n2cnc3c(NC4CC4)nc(Cl)nc32)[C@H](O)[C@@H]1O)N1CCOCC1
6,49000 nM,Cc1ccccc1CNc1nc(Cl)nc2c1ncn2[C@@H]1O[C@H](C(=O)N2CCC(Cc3ccccc3)CC2)[C@@H](O)[C@H]1O
7,437 nM,O=C(NCCc1ccccc1)[C@H]1O[C@@H](n2cnc3c(NCc4cccc(I)c4)nc(Cl)nc32)[C@H](O)[C@@H]1O
8,3470 nM,CNc1nc(Cl)nc2c1ncn2[C@@H]1O[C@H](C(=O)N2CCC(Cc3ccccc3)CC2)[C@@H](O)[C@H]1O
9,4.27 nM,CNC(=O)[C@H]1S[C@@H](n2cnc3c(NC4CCCC4)nc(Cl)nc32)[C@H](O)[C@@H]1O
10,871 nM,O=C([C@H]1S[C@@H](n2cnc3c(NCc4cccc(I)c4)nc(Cl)nc32)[C@H](O)[C@@H]1O)N1CCC(Cc2ccccc2)CC1
11,2.19 nM,CNC(=O)[C@H]1O[C@@H](n2cnc3c(NCc4ccccc4C)nc(Cl)nc32)[C@H](O)[C@@H]1O
12,17.4 nM,CNc1nc(Cl)nc2c1ncn2[C@@H]1O[C@H](C(=O)NCc2cccc(F)c2)[C@@H](O)[C@H]1O
13,309 nM,O=C(NCc1cccc(Cl)c1)[C@H]1O[C@@H](n2cnc3c(NCc4cccc(I)c4)nc(Cl)nc32)[C@H](O)[C@@H]1O
14,3980 nM,O=C([C@H]1O[C@@H](n2cnc3c(NC4CC4)nc(Cl)nc32)[C@H](O)[C@@H]1O)N1CCC(Cc2ccccc2)CC1
15,18.2 nM,O=C(NC1CCC1)[C@H]1S[C@@H](n2cnc3c(NCc4cccc(I)c4)nc(Cl)nc32)[C@H](O)[C@@H]1O
16,1.62 nM,CNc1nc(Cl)nc2c1ncn2[C@@H]1O[C@H](C(=O)NCCC(C)C)[C@@H](O)[C@H]1O
17,3890 nM,CNc1nc(Cl)nc2c1ncn2[C@@H]1O[C@H](C(=O)N2CCOCC2)[C@@H](O)[C@H]1O
18,631 nM,Cc1ccccc1CNc1nc(Cl)nc2c1ncn2[C@@H]1O[C@H](C(=O)N(C)C)[C@@H](O)[C@H]1O
